Test results: US10513534B2, “2′-chloro nucleoside analogs for HCV infection” (priority 2012, dated 2019)

Assay: Stability in simulated intestinal fluid
Type: in vitro ADME
Conditions: simulated intestinal fluid with pancreatin, 100 μM, 2 hours, 37° C.
Description: Stability in Simulated Gastric and Intestinal Fluids: Simulated gastric and intestinal fluids containing pepsin and pancreatin respectively were prepared according to the U.S. Pharmacopoeia USP291 procedure(www.pharmacopeia.cn/v29240/usp29nf24s0_ris1s126.html). Each test compound (final concentration 100 μM) was incubated in duplicate in the appropriate fluid for 2 hours at 37° C. The samples were quenched with […] cold acetonitrile, vortexed for 30 seconds and then centrifuged at 16100×g for 10 min. The supernatants were analyzed by HPLC on a C-18 column with UV detection at 252 nm. The time zero samples were prepared by adding SGF or SIF fluid to the quenching solvent followed by the test compound. Stability of the compound was determined by peak area of the test compound after incubation and calculated as percent of the peak area observed at time zero.

## CC(C)OC(=O)[C@H](C)NP(=O)(OC[C@H]1O[C@@H](n2ccc(=O)[nH]c2=O)[C@](C)(Cl)[C@@H]1O)Oc1ccccc1 (single isomer, unassigned) [Compound 40ii Diastereomer 2]
  SIF stability (percent remaining): + (+ ≤ 25%)
